The supplement of paper PMC11451515

System: P12-Ichikawa
Test: cell viability relative to DMSO control; higher = less cytotoxic
Conditions: 48 h
How it was run: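 Three leukemia lines were tested: NOMO1 and SEM at 500 cells/well and P12-Ichikawa at 1000 cells/well. Each was adapted for at least four passages in each medium and seeded in 5 μl in 1536-well plates, and library compounds in DMSO were pin-dosed from 47 μM to 0.79 nM in 11 threefold steps. After 48 h at 37°C, CellTiter-Glo One luminescence was read. Viability is a percentage relative to DMSO wells on each plate, with cell-free wells as background.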

[1] = HPLM + 10% dialyzed FBS, 0.000781 µM
[2] = HPLM + 10% dialyzed FBS, 0.00234 µM
[3] = HPLM + 10% dialyzed FBS, 0.00702 µM
[4] = HPLM + 10% dialyzed FBS, 0.0211 µM
[5] = HPLM + 10% dialyzed FBS, 0.0632 µM
[6] = HPLM + 10% dialyzed FBS, 0.19 µM
[7] = HPLM + 10% dialyzed FBS, 0.569 µM
[8] = HPLM + 10% dialyzed FBS, 1.71 µM
[9] = HPLM + 10% dialyzed FBS, 5.12 µM
[10] = HPLM + 10% dialyzed FBS, 15.4 µM
[11] = HPLM + 10% dialyzed FBS, 46.1 µM
[12] = RPMI 5 mM glucose + 10% FBS, 0.000781 µM
[13] = RPMI 5 mM glucose + 10% FBS, 0.00234 µM
[14] = RPMI 5 mM glucose + 10% FBS, 0.00702 µM
[15] = RPMI 5 mM glucose + 10% FBS, 0.0211 µM
[16] = RPMI 5 mM glucose + 10% FBS, 0.0632 µM
[17] = RPMI 5 mM glucose + 10% FBS, 0.19 µM
[18] = RPMI 5 mM glucose + 10% FBS, 0.569 µM
[19] = RPMI 5 mM glucose + 10% FBS, 1.71 µM
[20] = RPMI 5 mM glucose + 10% FBS, 5.12 µM
[21] = RPMI 5 mM glucose + 10% FBS, 15.4 µM
[22] = RPMI 5 mM glucose + 10% FBS, 46.1 µM
[23] = RPMI 5 mM glucose + 10% dialyzed FBS, 0.000781 µM
[24] = RPMI 5 mM glucose + 10% dialyzed FBS, 0.00234 µM
[25] = RPMI 5 mM glucose + 10% dialyzed FBS, 0.00702 µM
[26] = RPMI 5 mM glucose + 10% dialyzed FBS, 0.0211 µM
[27] = RPMI 5 mM glucose + 10% dialyzed FBS, 0.0632 µM
[28] = RPMI 5 mM glucose + 10% dialyzed FBS, 0.19 µM
[29] = RPMI 5 mM glucose + 10% dialyzed FBS, 0.569 µM
[30] = RPMI 5 mM glucose + 10% dialyzed FBS, 1.71 µM
[31] = RPMI 5 mM glucose + 10% dialyzed FBS, 5.12 µM
[32] = RPMI 5 mM glucose + 10% dialyzed FBS, 15.4 µM
[33] = RPMI 5 mM glucose + 10% dialyzed FBS, 46.1 µM

Row | Compound | cell viability [1] | cell viability [2] | cell viability [3] | cell viability [4] | cell viability [5] | cell viability [6] | cell viability [7] | cell viability [8] | cell viability [9] | cell viability [10] | cell viability [11] | cell viability [12] | cell viability [13] | cell viability [14] | cell viability [15] | cell viability [16] | cell viability [17] | cell viability [18] | cell viability [19] | cell viability [20] | cell viability [21] | cell viability [22] | cell viability [23] | cell viability [24] | cell viability [25] | cell viability [26] | cell viability [27] | cell viability [28] | cell viability [29] | cell viability [30] | cell viability [31] | cell viability [32] | cell viability [33]
1 | CC(=O)OC[C@@H]1O[C@H]([C@H](OC(C)=O)[C@@H]1OC(C)=O)N2\C=C/C(=O)NC2=O | 119% | 120% | 128% | 122% | 114% | 120% | 110% | 110% | 113% | 106% | 71.8% | 121% | 117% | 121% | 116% | 117% | 108% | 102% | 113% | 108% | 114% | 98.3% | 120% | 106% | 116% | 111% | 111% | 111% | 111% | 108% | 99.7% | 104% | 92%
2 | C[C@]1(O)CC(C1)C2=NC(=C3[N]2C=CN=C3N)C4=CC5=C(C=C4)C=CC(=N5)C6=CC=CC=C6 (stereo not drawn) | 94% | 97.3% | 104% | 103% | 107% | 97.7% | 105% | 97.4% | 75.5% | 4.9% | 1.89% | 102% | 101% | 103% | 101% | 93.5% | 89.6% | 96.4% | 59.5% | 50.3% | 3.05% | 1.49% | 96.1% | 96.5% | 94.5% | 98.2% | 101% | 94.5% | 99% | 71% | 58.2% | 4.69% | 1.85%
3 | Cc1ccc2nc(NCCN)c3ncc(C)n3c2c1 | 104% | 105% | 106% | 101% | 106% | 104% | 103% | 105% | 109% | 94.8% | 42.5% | 97.8% | 111% | 105% | 107% | 107% | 108% | 102% | 104% | 102% | 97.4% | 23.2% | 102% | 110% | 104% | 105% | 104% | 91% | 101% | 102% | 103% | 101% | 33.7%
4 | CC(C)(N)c1ccc(-c2nc3ccccc3nc2-c2ccccc2)cc1 | 110% | 114% | 108% | 65.8% | 23.2% | 10.3% | 7.18% | 5.6% | 5.46% | 4.51% | 4.37% | 96.3% | 120% | 109% | 111% | 84.4% | 18.8% | 10.2% | 6.88% | 6.89% | 4.41% | 3.11% | 108% | 117% | 111% | 114% | 68.8% | 22.3% | 13.9% | 8.23% | 7.24% | 7.26% | 4.8%
5 | Cc1cc(Nc2cc(N3CCN(C)CC3)nc(/C=C/c3ccccc3)n2)n[nH]1 | 105% | 111% | 115% | 120% | 118% | 122% | 116% | 12.1% | 5.08% | 4.47% | 5.23% | 113% | 108% | 113% | 117% | 121% | 125% | 119% | 41.5% | 8.43% | 4.4% | 4.88% | 107% | 114% | 112% | 112% | 121% | 130% | 126% | 37.4% | 11.6% | 5.07% | 5.54%
6 | O=C(O)CCCCCC(=O)NN=C1CCCC1 | 96.2% | 103% | 99.4% | 108% | 110% | 107% | 115% | 116% | 111% | 99.7% | 73.2% | 89% | 103% | 104% | 113% | 105% | 112% | 106% | 120% | 104% | 112% | 105% | 85.4% | 98.8% | 103% | 100% | 107% | 98.1% | 113% | 99.3% | 105% | 104% | 109%
7 | CCOC(=O)N1CCN(/[N+]([O-])=N/Oc2cc(O/N=[N+](\[O-])N3CCN(C(=O)OCC)CC3)c([N+](=O)[O-])cc2[N+](=O)[O-])CC1 | 122% | 123% | 125% | 123% | 131% | 140% | 131% | 140% | 136% | 134% | 135% |  |  |  |  |  |  |  |  |  |  |  |  |  |  |  |  |  |  |  |  |  | 
8 | CCCN[C@H]1CCc2nc(N)sc2C1 | 92.8% | 104% | 98% | 98.4% | 101% | 107% | 101% | 110% | 103% | 104% | 107% | 94.3% | 90.5% | 107% | 104% | 107% | 110% | 107% | 111% | 114% | 114% | 120% | 85.6% | 95.1% | 90.4% | 93.6% | 96% | 101% | 96.1% | 93.6% | 94.9% | 96.9% | 106%
9 | COC1=CC=C(C=C1)/C2=C(O)/C(=O)C3=C(O)C=C(O)C(=C3O2)CC=C(C)C | 115% | 115% | 115% | 117% | 121% | 122% | 121% | 119% | 113% | 87.9% | 122% | 108% | 111% | 105% | 110% | 108% | 115% | 114% | 120% | 123% | 67% | 121% | 118% | 110% | 122% | 116% | 127% | 115% | 125% | 128% | 117% | 95.8% | 118%
10 | COc1cc(C(=O)NC2CCN(C)CC2)ccc1Nc1ncc2c(n1)N(C1CCCC1)CCC(=O)N2C(C)C | 104% | 102% | 103% | 110% | 109% | 110% | 85% | 109% | 79.2% | 26.3% | 4.5% | 107% | 103% | 95.1% | 112% | 108% | 116% | 89.6% | 114% | 73.4% | 42.7% | 5.67% | 98.1% | 104% | 111% | 110% | 111% | 106% | 92.3% | 107% | 71.2% | 54.1% | 6%
11 | C=CC(=O)Nc1cc2c(Nc3ccc(F)c(Cl)c3)ncnc2cc1C#CC(C)(C)N1CCN(C)CC1 | 103% | 108% | 99.5% | 97.4% | 102% | 106% | 107% | 102% | 58.9% | 5.08% | 23.4% | 95.6% | 105% | 101% | 102% | 112% | 106% | 107% | 106% | 65.7% | 5.56% | 15.3% | 97.4% | 101% | 96.1% | 101% | 101% | 98.2% | 96.1% | 95.7% | 51% | 5.48% | 12.7%
12 | OC(=O)\C1=C\N(C2CC2)C3=CC(=C(F)C=C3C1=O)N4CCNCC4 | 110% | 114% | 114% | 111% | 112% | 112% | 115% | 113% | 96.6% | 91.9% | 68.7% | 102% | 104% | 115% | 108% | 112% | 113% | 115% | 100% | 104% | 92.3% | 63.9% | 99.4% | 106% | 113% | 111% | 112% | 108% | 113% | 114% | 99.4% | 90.5% | 64.7%
13 | CCC(C)CCCCC(=O)N[C@@H](CCN)C(=O)NC(C(=O)N[C@H](CCN)C(=O)N[C@@H]1CCNC(=O)C([C@@H](C)O)NC(=O)[C@@H](CCN)NC(=O)[C@@H](CCN)NC(=O)[C@@H](CC(C)C)NC(=O)[C@H](Cc2ccccc2)NC(=O)[C@H](CCN)NC1=O)[C@@H](C)O (stereo partly drawn) | 114% | 118% | 117% | 117% | 122% | 128% | 129% | 124% | 129% | 128% | 126% | 114% | 113% | 115% | 120% | 135% | 135% | 134% | 131% | 132% | 132% | 123% | 111% | 110% | 112% | 115% | 117% | 117% | 120% | 134% | 135% | 123% | 124%
14 | CN1C(=O)c2sccc2N(C)c2nc(Nc3ccc([S+](N)(=O)[O-])cc3)ncc21 | 91.5% | 94% | 95.1% | 102% | 101% | 96.2% | 92.6% | 75.7% | 11.4% | 5.78% | 5.18% | 96.2% | 96% | 98.3% | 93.4% | 99.7% | 99.7% | 90% | 73.6% | 17.2% | 13.1% | 6.79% | 98.2% | 103% | 104% | 99.4% | 98.2% | 88.9% | 95.8% | 64.9% | 23.4% | 14.5% | 9.34%
15 | C[C@H](NC(=O)Cc1cc(F)cc(F)c1)C(=O)N[C@H](C(=O)OC(C)(C)C)c1ccccc1 | 94% | 90.9% | 94.9% | 94.1% | 94.6% | 92.5% | 89% | 88.3% | 86.9% | 88% | 80.4% | 92.3% | 91.7% | 91.2% | 87% | 90.7% | 95.4% | 89.1% | 82.7% | 87.9% | 87.6% | 92.8% | 78.9% | 82.5% | 79.8% | 79.7% | 86.1% | 88.8% | 78.2% | 86.1% | 83.7% | 77.4% | 73.3%
